Experimental data as given in the supplement of paper PMC13380429.

Columns and labels:
[1] = tested on: A549-ACE2 infected with SARS-CoV-2; test: morphology score (similarity to uninfected cells); higher = more like uninfected cells; details: 24 h
[2] = tested on: A549-ACE2; test: drug-induced phospholipidosis relative to tamoxifen; higher = more phospholipidosis
[3] = tested on: Calu-3; test: relative viability EC50 (midpoint between 100% and the lowest measured viability); higher = less toxic; details: 72 h
[4] = tested on: Caco-2; test: as above; details: 72 h
[5] = tested on: A549-ACE2 infected with SARS-CoV-2; test: cell count relative to DMSO; higher = less toxic; details: 24 h
[6] = tested on: A549-ACE2 infected with SARS-CoV-2; test: SARS-CoV-2 infection rate relative to DMSO; higher = more infection; details: 24 h
[7] = tested on: Vero E6; test: drug sensitivity score (DSS) for viability; higher = more toxic; extreme values may be limits of the assay; details: 72 h
[8] = tested on: U2OS; test: as above; details: 72 h
[9] = tested on: HepG2; test: as above; details: 72 h
[10] = tested on: Calu-3; test: as above; details: 72 h
[11] = tested on: Caco-2; test: as above; details: 72 h
[12] = tested on: Vero E6; test: cell viability relative to DMSO; higher = less toxic; details: 72 h
[13] = tested on: U2OS; test: as above; details: 72 h
[14] = tested on: HepG2; test: as above; details: 72 h
[15] = tested on: Calu-3; test: as above; details: 72 h
[16] = tested on: Caco-2; test: as above; details: 72 h
[17] = tested on: U2OS; test: relative viability EC50 (midpoint between 100% and the lowest measured viability); higher = less toxic; details: 72 h
[18] = tested on: HepG2; test: as above; details: 72 h
[19] = tested on: A549-ACE2; test: phospholipidosis EC50; higher = less potent phospholipidosis inducer

CCn1c(-c2nonc2N)nc2cncc(C(=O)N3CC[C@H](N)C3)c21
Details	SARS-CoV-2 infection rate, [6] [%]	cell count, [5] [%]	cell viability, [12] [%]	cell viability, [13] [%]	cell viability, [14] [%]	cell viability, [15] [%]	cell viability, [16] [%]	morphology score, [1]
1 nM	–	–	107	103	99.3	104	98.7	–
10 nM	–	–	106	99.1	108	94	99.1	–
0.1 µM	103	104	–	–	–	–	–	0.19
100 nM	–	–	95.3	101	95.9	107	98.1	–
0.3 µM	105	110	–	–	–	–	–	0.18
1 µM	109	91	–	–	–	–	–	-0.07
1000 nM	–	–	84.6	88.2	88.2	127	93.5	–
3 µM	105	73	–	–	–	–	–	-0.12
10000 nM	–	–	52.2	60.5	71.8	124	84.2	–

drug-induced phospholipidosis [%], [2]
Details	0.3 µM	0.833333 µM	3.33333 µM	6.66667 µM	10 µM	30 µM
24 h	0.14	1.05	-2.9	-4.65	-1.66	4.03
48 h	0.57	0.37	-3.24	-3.77	-1.92	7.82
72 h	0.439	-0.392	-3.22	-2.1	–	–

Details	drug sensitivity score	relative viability EC50 [µM]
[3]	–	> 10
[4]	–	> 10
[7]	4.4	–
[8]	3.7	–
[9]	2.2	–
[10]	0	–
[11]	0.5	–

O=C(CCCN1CCC2(CC1)C(=O)N(Cc1cccc(F)c1)CN2c1ccccc1)c1ccc(F)cc1 [3'-fluorobenzylspiperone]
Details	SARS-CoV-2 infection rate [%]	cell count [%]	cell viability [%]	morphology score	phospholipidosis EC50 [µM]
[1], 0.1 µM	–	–	–	-0.13	–
[1], 0.3 µM	–	–	–	0.27	–
[1], 1 µM	–	–	–	0.46	–
[1], 3 µM	–	–	–	0.54	–
[5], 0.1 µM	–	97	–	–	–
[5], 0.3 µM	–	102	–	–	–
[5], 1 µM	–	109	–	–	–
[5], 3 µM	–	107	–	–	–
[6], 0.1 µM	99	–	–	–	–
[6], 0.3 µM	90	–	–	–	–
[6], 1 µM	87	–	–	–	–
[6], 3 µM	17	–	–	–	–
[12], 1 nM	–	–	103	–	–
[12], 10 nM	–	–	97.2	–	–
[12], 100 nM	–	–	93	–	–
[12], 1000 nM	–	–	95.1	–	–
[12], 10000 nM	–	–	62.9	–	–
[13], 1 nM	–	–	96.5	–	–
[13], 10 nM	–	–	102	–	–
[13], 100 nM	–	–	98.7	–	–
[13], 1000 nM	–	–	99.8	–	–
[13], 10000 nM	–	–	26.4	–	–
[14], 1 nM	–	–	94.6	–	–
[14], 10 nM	–	–	98.1	–	–
[14], 100 nM	–	–	95.9	–	–
[14], 1000 nM	–	–	103	–	–
[14], 10000 nM	–	–	44.4	–	–
[15], 1 nM	–	–	101	–	–
[15], 10 nM	–	–	106	–	–
[15], 100 nM	–	–	90.6	–	–
[15], 1000 nM	–	–	101	–	–
[15], 10000 nM	–	–	29.7	–	–
[16], 1 nM	–	–	90.9	–	–
[16], 10 nM	–	–	91.1	–	–
[16], 100 nM	–	–	100	–	–
[16], 1000 nM	–	–	101	–	–
[16], 10000 nM	–	–	27.9	–	–
[19], 48 h	–	–	–	–	2.95

drug-induced phospholipidosis [%], [2]
Details	0.3 µM	0.833333 µM	3.33333 µM	6.66667 µM	10 µM	30 µM
24 h	3.51	-1.7	29	48.2	-29.1	-34.9
48 h	4.33	1.23	42.2	60	–	–
72 h	4.04	1.05	39.3	48.1	–	–

Details	drug sensitivity score	relative viability EC50 [µM]
[3]	–	3.25
[4]	–	3.28
[7]	2.6	–
[8]	4.1	–
[9]	2.7	–
[10]	3.8	–
[11]	3.9	–
[17]	–	3.15
[18]	–	3.46

COc1ccc(-c2cc3nccn3c(Nc3ncccc3C(N)=O)n2)cc1OC [BAY-61-3606]
Details	SARS-CoV-2 infection rate, [6] [%]	cell count, [5] [%]	cell viability, [12] [%]	cell viability, [13] [%]	cell viability, [14] [%]	cell viability, [15] [%]	cell viability, [16] [%]	morphology score, [1]
1 nM	–	–	97.4	103	96.1	108	104	–
10 nM	–	–	99	97.4	99.7	99.1	89.8	–
0.1 µM	94	99	–	–	–	–	–	0.21
100 nM	–	–	93.9	101	102	96	95.8	–
0.3 µM	101	99	–	–	–	–	–	0.16
1 µM	107	95	–	–	–	–	–	0.02
1000 nM	–	–	99.6	94.1	87.5	130	80.8	–
3 µM	82	59	–	–	–	–	–	0.48
10000 nM	–	–	70.9	53.3	5	109	46.1	–

drug-induced phospholipidosis [%], [2]
Details	0.3 µM	0.833333 µM	3.33333 µM
24 h	-2.52	-2.28	22.8
48 h	0.47	-0.01	–
72 h	0.971	-0.217	–

Details	drug sensitivity score	relative viability EC50 [µM]
[3]	–	> 10
[4]	–	1.36
[7]	1.3	–
[8]	3.4	–
[9]	7.4	–
[10]	0	–
[11]	5.2	–
[18]	–	2.1

COC(=O)C1=C(C)NC(C)=C(C(=O)NCCCN2CCC(c3ccccc3)(c3ccccc3)CC2)C1c1ccc([N+](=O)[O-])cc1 (stereo unspecified) [SNAP-5089]
Details	SARS-CoV-2 infection rate [%]	cell count [%]	cell viability [%]	morphology score	phospholipidosis EC50 [µM]
[1], 0.1 µM	–	–	–	0.15	–
[1], 0.3 µM	–	–	–	-0.06	–
[1], 1 µM	–	–	–	0.43	–
[1], 3 µM	–	–	–	0.87	–
[5], 0.1 µM	–	104	–	–	–
[5], 0.3 µM	–	100	–	–	–
[5], 1 µM	–	110	–	–	–
[5], 3 µM	–	123	–	–	–
[6], 0.1 µM	92	–	–	–	–
[6], 0.3 µM	107	–	–	–	–
[6], 1 µM	84	–	–	–	–
[6], 3 µM	23	–	–	–	–
[12], 1 nM	–	–	94.8	–	–
[12], 10 nM	–	–	98.5	–	–
[12], 100 nM	–	–	97.4	–	–
[12], 1000 nM	–	–	91.8	–	–
[12], 10000 nM	–	–	74.3	–	–
[13], 1 nM	–	–	94.4	–	–
[13], 10 nM	–	–	98.7	–	–
[13], 100 nM	–	–	98.5	–	–
[13], 1000 nM	–	–	102	–	–
[13], 10000 nM	–	–	63.8	–	–
[14], 1 nM	–	–	114	–	–
[14], 10 nM	–	–	108	–	–
[14], 100 nM	–	–	102	–	–
[14], 1000 nM	–	–	98.6	–	–
[14], 10000 nM	–	–	35.5	–	–
[15], 1 nM	–	–	88.4	–	–
[15], 10 nM	–	–	101	–	–
[15], 100 nM	–	–	92.3	–	–
[15], 1000 nM	–	–	107	–	–
[15], 10000 nM	–	–	12.1	–	–
[16], 1 nM	–	–	95.4	–	–
[16], 10 nM	–	–	94.8	–	–
[16], 100 nM	–	–	92.9	–	–
[16], 1000 nM	–	–	106	–	–
[16], 10000 nM	–	–	63	–	–
[19], 24 h	–	–	–	–	0.945
[19], 48 h	–	–	–	–	1.98
[19], 72 h	–	–	–	–	4.51

drug-induced phospholipidosis [%], [2]
Details	0.3 µM	0.833333 µM	3.33333 µM	6.66667 µM	10 µM	30 µM
24 h	5.01	19.9	66.9	74.6	62.5	47.6
48 h	7.57	17.4	77.4	93.7	96.6	–
72 h	6.91	11.4	64.3	94.9	116	–

Details	drug sensitivity score	relative viability EC50 [µM]
[3]	–	3.57
[7]	1.9	–
[8]	1.6	–
[9]	3.7	–
[10]	4.4	–
[11]	1.4	–
[18]	–	3.02
